In paper PMC9697799, “(E)-N-(3-(1-(2-(4-(2,2,2-Trifluoroacetamido)benzoyl)hydrazono)ethyl)phenyl)nicotinamide: A Novel Pyridine Derivative for Inhibiting Vascular Endothelial Growth Factor Receptor-2: Synthesis, Computational, and Anticancer Studies” (Molecules, 2022):

Target: T1, VEGFR-2 (Homo sapiens, UniProt P35968)
T1 construct: gene KDR
Assay: in vitro VEGFR-2 inhibition, Human VEGFR-2 ELISA kit
Assay type: biochemical

T1 sequence (P35968 20-1356): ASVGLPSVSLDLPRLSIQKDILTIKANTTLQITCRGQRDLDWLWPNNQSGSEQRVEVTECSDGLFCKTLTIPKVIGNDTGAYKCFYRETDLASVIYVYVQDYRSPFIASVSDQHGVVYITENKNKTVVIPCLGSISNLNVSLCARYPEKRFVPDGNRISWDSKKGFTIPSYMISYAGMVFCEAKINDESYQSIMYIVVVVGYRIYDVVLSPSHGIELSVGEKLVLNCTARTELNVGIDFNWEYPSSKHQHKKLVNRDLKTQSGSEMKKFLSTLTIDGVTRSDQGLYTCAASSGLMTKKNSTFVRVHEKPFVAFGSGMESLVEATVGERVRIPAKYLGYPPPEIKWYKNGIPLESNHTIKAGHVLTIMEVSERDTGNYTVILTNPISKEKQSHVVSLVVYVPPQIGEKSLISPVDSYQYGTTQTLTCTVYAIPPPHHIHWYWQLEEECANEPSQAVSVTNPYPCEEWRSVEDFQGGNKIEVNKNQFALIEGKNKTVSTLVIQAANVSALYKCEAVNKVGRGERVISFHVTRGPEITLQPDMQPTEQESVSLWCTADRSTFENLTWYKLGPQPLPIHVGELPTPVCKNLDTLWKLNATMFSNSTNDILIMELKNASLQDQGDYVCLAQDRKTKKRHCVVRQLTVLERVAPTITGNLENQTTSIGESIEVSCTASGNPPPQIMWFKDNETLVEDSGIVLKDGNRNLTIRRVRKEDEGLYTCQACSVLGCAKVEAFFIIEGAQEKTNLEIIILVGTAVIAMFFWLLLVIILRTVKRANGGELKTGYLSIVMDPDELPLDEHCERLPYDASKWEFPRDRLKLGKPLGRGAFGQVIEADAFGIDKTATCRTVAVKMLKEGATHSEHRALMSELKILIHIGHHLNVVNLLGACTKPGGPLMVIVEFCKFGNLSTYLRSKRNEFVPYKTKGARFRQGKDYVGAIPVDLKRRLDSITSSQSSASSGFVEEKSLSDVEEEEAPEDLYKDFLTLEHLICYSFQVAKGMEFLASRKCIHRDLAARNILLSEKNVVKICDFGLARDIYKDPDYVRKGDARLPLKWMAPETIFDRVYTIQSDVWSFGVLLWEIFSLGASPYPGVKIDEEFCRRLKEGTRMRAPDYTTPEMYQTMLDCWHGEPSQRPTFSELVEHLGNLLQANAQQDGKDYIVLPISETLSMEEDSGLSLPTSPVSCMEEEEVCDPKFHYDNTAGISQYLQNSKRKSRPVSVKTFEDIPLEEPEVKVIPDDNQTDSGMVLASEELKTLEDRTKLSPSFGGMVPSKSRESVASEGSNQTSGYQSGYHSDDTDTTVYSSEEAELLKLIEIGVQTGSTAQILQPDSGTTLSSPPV

IC50: 65.8 nM
SMILES: C/C(=N\NC(=O)c1ccc(NC(=O)C(F)(F)F)cc1)c1cccc(NC(=O)c2cccnc2)c1 [compound 10, (E)-N-(3-(1-(2-(4-(2,2,2-Trifluoroacetamido)benzoyl)hydrazono)ethyl)phenyl)nicotinamide]
